The source of these data is ChEMBL document CHEMBL5465560, “Selectivity Literature for EUbOPEN Chemogenomic Library” (2024).

In assay [1] the target is T1, Mitogen-activated protein kinase kinase kinase 13 (Homo sapiens) (UniProt O43283).
T1 sequence (whole entry): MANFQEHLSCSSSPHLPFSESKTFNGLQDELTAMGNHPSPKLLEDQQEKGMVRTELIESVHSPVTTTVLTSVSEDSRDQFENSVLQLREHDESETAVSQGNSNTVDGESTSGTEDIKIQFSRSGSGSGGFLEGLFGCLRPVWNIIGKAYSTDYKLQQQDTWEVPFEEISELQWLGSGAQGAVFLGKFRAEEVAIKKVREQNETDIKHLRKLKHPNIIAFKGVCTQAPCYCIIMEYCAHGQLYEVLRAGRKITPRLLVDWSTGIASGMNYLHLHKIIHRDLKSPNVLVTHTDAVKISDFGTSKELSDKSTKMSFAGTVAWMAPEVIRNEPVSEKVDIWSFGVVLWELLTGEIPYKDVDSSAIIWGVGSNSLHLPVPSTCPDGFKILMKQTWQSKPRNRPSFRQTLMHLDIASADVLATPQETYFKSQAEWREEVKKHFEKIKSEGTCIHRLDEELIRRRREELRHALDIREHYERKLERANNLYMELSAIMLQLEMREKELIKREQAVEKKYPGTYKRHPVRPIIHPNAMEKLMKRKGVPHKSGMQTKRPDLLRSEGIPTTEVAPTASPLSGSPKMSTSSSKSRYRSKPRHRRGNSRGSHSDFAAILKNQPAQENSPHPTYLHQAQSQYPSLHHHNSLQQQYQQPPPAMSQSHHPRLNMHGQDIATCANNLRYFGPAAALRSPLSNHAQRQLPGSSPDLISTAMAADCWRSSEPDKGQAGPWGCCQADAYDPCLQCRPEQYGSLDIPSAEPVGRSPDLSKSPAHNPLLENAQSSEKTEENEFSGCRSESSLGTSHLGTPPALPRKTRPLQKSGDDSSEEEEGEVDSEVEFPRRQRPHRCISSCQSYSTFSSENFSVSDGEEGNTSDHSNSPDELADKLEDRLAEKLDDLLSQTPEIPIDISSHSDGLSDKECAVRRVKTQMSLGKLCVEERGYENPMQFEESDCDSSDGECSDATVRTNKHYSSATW
The conditions noted are these: at 10 µM.

Assay [2] deals with STE20/SPS1-related proline-alanine-rich protein kinase (Homo sapiens) (UniProt Q9UEW8). The assay is described as follows: Selectivity interaction (KinomeScan (DiscoverX)) EUB0001049a STK39. The conditions noted are these: at 1 µM.
The target in assay [3] is T2, Phosphatidylinositol 5-phosphate 4-kinase type-2 alpha (Homo sapiens) (UniProt P48426).
T2 sequence (whole entry): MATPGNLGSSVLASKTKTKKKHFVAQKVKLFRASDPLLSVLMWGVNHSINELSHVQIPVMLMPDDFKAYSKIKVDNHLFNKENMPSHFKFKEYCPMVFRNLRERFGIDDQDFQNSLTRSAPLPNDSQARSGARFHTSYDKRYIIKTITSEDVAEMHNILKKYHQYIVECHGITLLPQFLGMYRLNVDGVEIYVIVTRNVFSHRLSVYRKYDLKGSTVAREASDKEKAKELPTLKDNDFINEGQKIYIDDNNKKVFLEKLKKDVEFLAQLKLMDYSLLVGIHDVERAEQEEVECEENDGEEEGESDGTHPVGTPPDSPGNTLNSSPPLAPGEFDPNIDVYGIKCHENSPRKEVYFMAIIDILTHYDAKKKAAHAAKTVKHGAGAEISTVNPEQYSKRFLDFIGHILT
The conditions noted are these: at 1 µM.

Assay [4] has as its target Histone-lysine N-methyltransferase SETD2 (Homo sapiens) (UniProt Q9BYW2). In words: Selectivity interaction (Transferase panel (protein, RNA, and DNA methyltransferases. and EP300 (acetyltransferase))) EUB0000270b SETD2.
Assay [5] addresses Ephrin type-A receptor 7 (Homo sapiens) (UniProt Q15375). The assay is described as follows: Selectivity interaction (KinomeScan (DiscoverX)) EUB0000607a EPHA7. To be noted: at 10 µM.
Assay [6] addresses STE20-like serine/threonine-protein kinase (Homo sapiens, UniProt Q9H2G2). The assay is described as follows: Selectivity interaction (ActivX KiNativ screen (kinase selectivity in THP-1 cell lysates)) EUB0000639a SLK. The conditions noted are these: lysate, at 5 µM. Type of assay: subcellular.
Assay [7] has as its target Serine/threonine-protein kinase PRP4 homolog (Homo sapiens) (UniProt Q13523). In words: Selectivity interaction (ActivX KiNativ screen (kinase selectivity in THP-1 cell lysates)) EUB0000639a PRPF4. To be noted: lysate, at 0.2 µM. It counts as subcellular.
For assay [8], the target named is Tyrosine-protein kinase SYK (Homo sapiens, UniProt P43405).
In assay [9] the target is Diacylglycerol kinase alpha (Homo sapiens) (UniProt P23743). The assay is described as follows: Selectivity interaction (ActivX KiNativ screen (ex vivo kinase selectivity in human PBMCs)) EUB0001619a DGKA. Type of assay: cell-based. The conditions noted are these: PBMC, at 1 µM.
For assay [10], the target named is T3, Inhibitor of nuclear factor kappa-B kinase subunit epsilon (Homo sapiens) (UniProt Q14164).
T3 sequence (whole entry): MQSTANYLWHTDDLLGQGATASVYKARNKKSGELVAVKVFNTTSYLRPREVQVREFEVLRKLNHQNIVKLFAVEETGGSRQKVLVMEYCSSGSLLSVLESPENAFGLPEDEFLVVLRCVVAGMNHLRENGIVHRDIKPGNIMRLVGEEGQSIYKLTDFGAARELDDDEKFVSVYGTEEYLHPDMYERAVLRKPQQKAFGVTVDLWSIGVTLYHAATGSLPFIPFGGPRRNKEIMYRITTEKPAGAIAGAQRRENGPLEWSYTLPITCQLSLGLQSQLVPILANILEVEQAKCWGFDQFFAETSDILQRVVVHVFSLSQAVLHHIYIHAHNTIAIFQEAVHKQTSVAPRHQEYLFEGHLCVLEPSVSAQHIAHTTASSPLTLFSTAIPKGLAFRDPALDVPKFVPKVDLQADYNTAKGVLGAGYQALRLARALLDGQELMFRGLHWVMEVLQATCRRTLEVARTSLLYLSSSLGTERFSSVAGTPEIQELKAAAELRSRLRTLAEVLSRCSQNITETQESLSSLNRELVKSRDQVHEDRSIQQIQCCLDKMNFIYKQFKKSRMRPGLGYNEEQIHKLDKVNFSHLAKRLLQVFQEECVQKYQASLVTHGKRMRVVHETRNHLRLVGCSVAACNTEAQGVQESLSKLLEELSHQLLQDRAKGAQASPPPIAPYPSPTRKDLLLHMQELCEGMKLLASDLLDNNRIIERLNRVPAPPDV
In words: Selectivity interaction (Kinase panel (KiNativ target engagement assay in Jurkat cells)) EUB0001635a IKBKE. It counts as cell-based. To be noted: at 1 µM.

The target in assay [11] is Serine/threonine-protein kinase SBK1 (Homo sapiens) (UniProt Q52WX2). In words: Selectivity interaction (KinomeScan (DiscoverX)) EUB0000618a SBK1. To be noted: at 10 µM.
Serine/threonine-protein kinase SBK1 (Homo sapiens), sequence (Q52WX2 whole entry): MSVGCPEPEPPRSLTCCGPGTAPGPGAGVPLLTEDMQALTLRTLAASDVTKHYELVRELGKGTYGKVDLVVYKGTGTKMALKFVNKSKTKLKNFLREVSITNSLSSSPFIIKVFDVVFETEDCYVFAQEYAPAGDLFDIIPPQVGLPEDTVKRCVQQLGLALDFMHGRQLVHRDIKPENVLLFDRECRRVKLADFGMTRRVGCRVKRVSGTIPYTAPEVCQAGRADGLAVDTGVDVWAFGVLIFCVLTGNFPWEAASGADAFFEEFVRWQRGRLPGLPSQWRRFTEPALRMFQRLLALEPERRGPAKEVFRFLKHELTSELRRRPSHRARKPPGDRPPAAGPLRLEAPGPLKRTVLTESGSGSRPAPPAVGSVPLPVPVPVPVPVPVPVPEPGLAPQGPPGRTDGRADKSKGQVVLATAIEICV

Histone-lysine N-methyltransferase SETD2 (Homo sapiens), sequence (Q9BYW2 whole entry): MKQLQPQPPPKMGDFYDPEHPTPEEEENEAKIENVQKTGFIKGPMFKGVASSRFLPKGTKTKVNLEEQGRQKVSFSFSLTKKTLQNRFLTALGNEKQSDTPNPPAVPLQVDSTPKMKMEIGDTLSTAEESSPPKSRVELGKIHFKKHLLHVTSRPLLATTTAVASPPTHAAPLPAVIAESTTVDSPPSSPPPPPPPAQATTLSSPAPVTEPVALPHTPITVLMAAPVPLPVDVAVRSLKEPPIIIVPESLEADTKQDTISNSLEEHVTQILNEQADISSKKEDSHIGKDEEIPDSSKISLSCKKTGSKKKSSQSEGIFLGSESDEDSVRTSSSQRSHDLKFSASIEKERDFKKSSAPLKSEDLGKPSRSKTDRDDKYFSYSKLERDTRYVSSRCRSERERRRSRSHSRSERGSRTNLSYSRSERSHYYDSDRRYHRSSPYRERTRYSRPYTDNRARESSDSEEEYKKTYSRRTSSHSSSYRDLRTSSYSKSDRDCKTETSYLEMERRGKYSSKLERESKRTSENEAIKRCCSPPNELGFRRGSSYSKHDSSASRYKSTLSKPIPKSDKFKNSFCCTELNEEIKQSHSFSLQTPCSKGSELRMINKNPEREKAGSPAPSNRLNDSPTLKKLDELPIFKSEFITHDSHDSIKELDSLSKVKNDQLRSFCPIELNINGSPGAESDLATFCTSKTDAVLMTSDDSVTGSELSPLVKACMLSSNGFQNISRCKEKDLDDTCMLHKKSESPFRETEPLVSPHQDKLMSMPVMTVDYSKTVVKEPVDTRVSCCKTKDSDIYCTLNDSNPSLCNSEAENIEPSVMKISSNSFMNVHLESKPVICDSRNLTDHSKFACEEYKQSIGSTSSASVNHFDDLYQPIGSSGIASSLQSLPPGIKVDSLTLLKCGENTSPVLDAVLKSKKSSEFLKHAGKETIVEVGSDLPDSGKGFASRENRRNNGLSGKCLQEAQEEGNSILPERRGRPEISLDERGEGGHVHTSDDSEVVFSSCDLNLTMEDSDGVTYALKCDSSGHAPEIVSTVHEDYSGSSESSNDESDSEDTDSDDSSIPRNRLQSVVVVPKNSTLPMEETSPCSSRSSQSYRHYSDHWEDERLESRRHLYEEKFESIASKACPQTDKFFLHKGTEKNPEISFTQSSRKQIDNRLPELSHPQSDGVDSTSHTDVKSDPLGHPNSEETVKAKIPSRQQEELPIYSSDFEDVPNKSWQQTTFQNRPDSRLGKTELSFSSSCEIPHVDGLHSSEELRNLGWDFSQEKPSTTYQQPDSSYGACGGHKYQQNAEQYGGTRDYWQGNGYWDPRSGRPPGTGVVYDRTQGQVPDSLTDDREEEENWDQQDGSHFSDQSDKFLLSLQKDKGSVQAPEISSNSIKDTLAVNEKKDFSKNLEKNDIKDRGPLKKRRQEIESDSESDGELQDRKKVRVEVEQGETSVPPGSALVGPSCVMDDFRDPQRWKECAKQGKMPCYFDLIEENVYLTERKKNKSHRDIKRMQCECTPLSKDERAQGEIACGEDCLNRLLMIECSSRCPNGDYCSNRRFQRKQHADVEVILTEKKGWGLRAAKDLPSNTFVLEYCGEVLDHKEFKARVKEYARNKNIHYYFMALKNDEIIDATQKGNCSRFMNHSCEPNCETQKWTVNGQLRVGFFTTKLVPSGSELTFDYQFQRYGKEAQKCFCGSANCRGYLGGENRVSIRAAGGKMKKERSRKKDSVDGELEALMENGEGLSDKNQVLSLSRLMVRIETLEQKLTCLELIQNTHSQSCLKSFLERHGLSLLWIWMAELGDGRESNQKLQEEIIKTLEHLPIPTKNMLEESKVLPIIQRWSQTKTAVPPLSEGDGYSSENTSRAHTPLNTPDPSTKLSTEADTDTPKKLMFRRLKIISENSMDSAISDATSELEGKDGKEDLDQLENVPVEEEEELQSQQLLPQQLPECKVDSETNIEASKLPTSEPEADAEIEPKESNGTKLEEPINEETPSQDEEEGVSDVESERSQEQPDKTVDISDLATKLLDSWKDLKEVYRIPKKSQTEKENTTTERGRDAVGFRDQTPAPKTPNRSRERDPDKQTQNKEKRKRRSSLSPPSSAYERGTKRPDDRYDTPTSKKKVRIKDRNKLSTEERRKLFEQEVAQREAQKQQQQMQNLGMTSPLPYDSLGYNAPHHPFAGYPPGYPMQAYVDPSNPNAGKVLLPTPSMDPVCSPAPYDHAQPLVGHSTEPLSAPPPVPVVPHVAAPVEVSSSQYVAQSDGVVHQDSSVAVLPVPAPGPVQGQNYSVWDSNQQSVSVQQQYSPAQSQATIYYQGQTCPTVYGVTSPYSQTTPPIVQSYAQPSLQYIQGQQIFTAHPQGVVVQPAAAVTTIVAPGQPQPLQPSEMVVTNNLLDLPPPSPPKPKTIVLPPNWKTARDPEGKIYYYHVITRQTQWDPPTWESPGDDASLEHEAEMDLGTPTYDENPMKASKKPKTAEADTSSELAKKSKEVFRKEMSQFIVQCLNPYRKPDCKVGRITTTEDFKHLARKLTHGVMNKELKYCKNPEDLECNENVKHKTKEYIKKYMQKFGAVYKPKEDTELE
Serine/threonine-protein kinase PRP4 homolog (Homo sapiens), sequence (Q13523 whole entry): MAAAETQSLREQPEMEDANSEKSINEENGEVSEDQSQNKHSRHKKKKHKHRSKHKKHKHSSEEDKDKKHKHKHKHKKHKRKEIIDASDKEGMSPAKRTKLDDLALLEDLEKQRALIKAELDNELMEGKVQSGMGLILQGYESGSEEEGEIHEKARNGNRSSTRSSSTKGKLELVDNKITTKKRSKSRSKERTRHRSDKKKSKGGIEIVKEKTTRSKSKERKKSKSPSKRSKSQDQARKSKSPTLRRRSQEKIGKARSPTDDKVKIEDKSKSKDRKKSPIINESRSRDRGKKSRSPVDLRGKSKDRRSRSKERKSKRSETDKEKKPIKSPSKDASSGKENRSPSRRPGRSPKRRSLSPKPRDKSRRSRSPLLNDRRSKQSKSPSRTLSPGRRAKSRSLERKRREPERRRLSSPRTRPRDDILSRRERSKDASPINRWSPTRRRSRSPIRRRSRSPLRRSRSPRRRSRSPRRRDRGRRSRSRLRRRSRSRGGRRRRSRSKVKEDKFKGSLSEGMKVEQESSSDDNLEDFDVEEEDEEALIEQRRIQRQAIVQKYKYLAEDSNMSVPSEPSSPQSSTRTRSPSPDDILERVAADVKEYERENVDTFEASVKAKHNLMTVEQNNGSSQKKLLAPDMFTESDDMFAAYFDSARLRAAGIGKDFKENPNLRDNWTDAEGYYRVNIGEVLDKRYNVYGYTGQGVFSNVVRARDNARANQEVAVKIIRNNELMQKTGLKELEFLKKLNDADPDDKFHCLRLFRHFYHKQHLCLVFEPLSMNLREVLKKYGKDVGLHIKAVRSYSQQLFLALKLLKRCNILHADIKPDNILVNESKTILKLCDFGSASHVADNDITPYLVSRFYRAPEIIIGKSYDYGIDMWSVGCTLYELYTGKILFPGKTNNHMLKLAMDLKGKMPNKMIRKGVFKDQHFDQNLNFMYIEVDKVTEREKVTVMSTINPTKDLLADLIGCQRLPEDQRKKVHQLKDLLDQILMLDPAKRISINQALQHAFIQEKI
Ephrin type-A receptor 7 (Homo sapiens), sequence (Q15375 28-998 limits assumed): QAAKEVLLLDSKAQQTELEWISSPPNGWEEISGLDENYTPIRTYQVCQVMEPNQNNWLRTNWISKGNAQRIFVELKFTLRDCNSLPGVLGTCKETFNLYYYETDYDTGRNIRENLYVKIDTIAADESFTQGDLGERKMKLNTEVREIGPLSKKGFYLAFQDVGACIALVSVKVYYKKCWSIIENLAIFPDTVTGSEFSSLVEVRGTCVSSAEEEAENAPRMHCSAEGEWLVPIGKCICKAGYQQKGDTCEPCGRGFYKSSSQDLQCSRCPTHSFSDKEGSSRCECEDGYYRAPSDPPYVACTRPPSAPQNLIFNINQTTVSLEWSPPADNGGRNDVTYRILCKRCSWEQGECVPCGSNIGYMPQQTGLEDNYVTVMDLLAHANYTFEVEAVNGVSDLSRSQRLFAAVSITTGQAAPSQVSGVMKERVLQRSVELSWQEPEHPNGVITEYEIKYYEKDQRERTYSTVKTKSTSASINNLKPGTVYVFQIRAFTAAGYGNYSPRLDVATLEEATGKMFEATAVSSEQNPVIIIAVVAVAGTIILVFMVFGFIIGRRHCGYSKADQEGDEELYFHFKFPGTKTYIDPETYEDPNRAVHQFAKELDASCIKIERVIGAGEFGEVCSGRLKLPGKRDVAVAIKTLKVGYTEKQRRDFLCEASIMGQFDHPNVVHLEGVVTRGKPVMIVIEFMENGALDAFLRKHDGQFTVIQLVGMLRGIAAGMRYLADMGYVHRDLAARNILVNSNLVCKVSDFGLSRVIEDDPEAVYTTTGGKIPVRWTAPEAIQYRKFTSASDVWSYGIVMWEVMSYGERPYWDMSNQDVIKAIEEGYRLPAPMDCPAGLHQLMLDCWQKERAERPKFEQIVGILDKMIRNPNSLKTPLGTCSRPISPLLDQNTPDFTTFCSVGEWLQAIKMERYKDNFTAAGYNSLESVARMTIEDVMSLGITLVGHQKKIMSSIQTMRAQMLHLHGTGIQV

On to `Cc1cc([C@@H](C)Nc2ccccc2C(=O)O)c2nc(N3CCOCC3)cc(=O)n2c1` [AZD-6482], for which the % of control in assay [1] was 100%.

Turning to `COc1cc(Nc2nc(C)cc(-c3cnn4nc(OC)ccc34)n2)cc(C(F)(F)F)c1`, in assay [2], the % of control stood at 64%.

Turning to `CC[C@@H](Nc1c(C#N)c(-c2ccc(-c3cccc(C)c3F)cc2)nc2cnccc12)C(=O)O` [BAY-091], the % of inhibition in assay [3] is 142%.

Consider `Cc1cc(CN)cc(C)c1-c1ncn(C)c1-c1cncn1C`, for which the % activity in assay [4] (at 1 µM) is above 90%; in assay [4] (at 10 µM), above 80%.

`CNC(=O)Nc1ccc(-c2nc(N3CC4CCC(C3)O4)c3cnn(C4CCC5(CC4)OCCO5)c3n2)cc1` showed a % of control in assay [5] of 87%.

Consider `CC[C@@H]1[C@H](F)C(=O)N[C@@H]1COc1nccc2cc(C(N)=O)c(OC)cc12` [ZIMLOVISERTIB], for which the figures for the % of inhibition in [6] and in assay [7] were -0.8% and 21.9%, respectively.

Consider `CCc1cccc(CC)c1NC(=O)c1nn(C)c2c1CCc1cnc(Nc3ccc(C(=O)NC4CCN(C)CC4)cc3OC(F)(F)F)nc1-2`, for which, in assay [8], the IC50 (in general, the midpoint of a concentration-inhibition curve) is above 10 µM.

Turning to `N#Cc1cccc(-c2c[nH]c3ncnc(N4CCOCC4)c23)c1`, in assay [9], the % of inhibition is -9%.

`C=CC(=O)Nc1ccc(C(=O)Nc2[nH]nc3c2CN(C(=O)N[C@H](CN(C)C)c2ccccc2)C3(C)C)cc1`: the % of engagement in assay [10] (Selectivity number of off-targets 0.0, Selectivity number of targets 233.0, Source Knowledge https://www.sciencedirect.com/science/article/pii/S2451945619300674?via%3Dihub) came to 28.4%; in [10], 32.7%.

As for `O[C@H]1CC[C@H](Nc2ncc3nc(Nc4c(F)cc(F)cc4F)n([C@H]4CCOC4)c3n2)CC1`, the % of control in assay [11] worked out at 73%.
